According to US9221864B2, “Tricyclic nucleic acid analogs” (Isis Pharmaceuticals, Inc., priority 2012, dated 2015):

Columns and labels:
Assay type in all cases: binding
[1] = test system: matched DNA complement 5′-d(AGCAAAXAACGC)-3′, X=A; experiment: Thermal stability (Tm) of 12mer oligomeric compounds duplexed to matched DNA complement; settings: relative to unmodified DNA 12mer ISIS 438705; 1.2 μM, 10 mM sodium phosphate buffer pH 7.2, 100 mM NaCl, 0.1 mM EDTA
Description: (§1) The oligomeric compounds in Table 1 were evaluated for thermal stability (Tm) using the method described herein. The Tm of the modified 12mer oligomeric compounds were compared to an unmodified 12mer DNA oligonucleotide when duplexed to either the matched or mismatched RNA complement.
(§2) Tm's were determined using a Cary 100 Bio spectrophotometer with the Cary Win UV thermal program was used to measure absorbance vs. temperature. For the Tm experiments, the oligomeric compounds were prepared at a concentration of 1.2 μM in 10 mM sodium phosphate buffer (pH 7.2) containing 100 mM NaCl and 0.1 mM EDTA. The concentrations, determined at 85° C. was 1.2 μM after mixing of equal volumes of selected oligomeric compound and complementary matched or mismatched RNA. The oligomeric compounds were hybridized with a complimentary matched or mismatched RNA by heating the duplex to 90° C. for 5 minutes and then cooling to room temperature. Tm measurements were taken using a spectrophotometer while the duplex solution was heated in a cuvette at a rate of 0.5° C./min starting at 15° C. until the temperature was 85° C. Tm values were determined using Vant Hoff calculations (A260 vs temperature curve) using non self-complementary sequences where the minimum absorbance related to the duplex and the maximum absorbance related to the non-duplex single strand are manually integrated into the program. Mismatched thermal stability was also measured and calculated by subtracting values of Tm measured vs the mismatched RNA complement from values of Tm vs the matched RNA complement for each modification.
(§3) The sequence for matched DNA complement is designated herein as SEQ ID No.: 6, 5′-d(AGCAAAXAACGC)-3′, wherein X=A. The sequence for matched RNA complement is designated herein as SEQ ID No.: 6, 5′-r(AGCAAAYAACGC)-3′, wherein Y=A. The mismatched RNA complement sequence is designated herein as SEQ ID No.: 7, 5′-r(AGCAAAZAACGC)-3′, wherein Z=G, C or U.

[2] = test system: matched RNA complement 5′-r(AGCAAAYAACGC)-3′, Y=A; experiment: Thermal stability (Tm) of 12mer oligomeric compounds duplexed to matched RNA complement; settings: relative to unmodified DNA 12mer ISIS 438705; 1.2 μM, 10 mM sodium phosphate buffer pH 7.2, 100 mM NaCl, 0.1 mM EDTA
Description: as §1, §2, §3

[3] = test system: mismatched RNA complement 5′-r(AGCAAAZAACGC)-3′, Z=G; experiment: Mismatch discrimination (Tm) vs mismatched RNA complement, Z=G; settings: 1.2 μM, 10 mM sodium phosphate buffer pH 7.2, 100 mM NaCl, 0.1 mM EDTA
Description: as §1, §2, §3

[4] = test system: mismatched RNA complement 5′-r(AGCAAAZAACGC)-3′, Z=C; experiment: Mismatch discrimination (Tm) vs mismatched RNA complement, Z=C; settings: 1.2 μM, 10 mM sodium phosphate buffer pH 7.2, 100 mM NaCl, 0.1 mM EDTA
Description: as §1
as §2, with “Mismatched thermal stability was also measured and calculated by subtracting values of Tm measured vs the mismatched RNA complement from values of Tm vs the matched RNA complement for each modification.” left out
as §3

[5] = test system: mismatched RNA complement 5′-r(AGCAAAZAACGC)-3′, Z=U; experiment: Mismatch discrimination (Tm) vs mismatched RNA complement, Z=U; settings: 1.2 μM, 10 mM sodium phosphate buffer pH 7.2, 100 mM NaCl, 0.1 mM EDTA
Description: as §1
as §2, with “Mismatched thermal stability was also measured and calculated by subtracting values of Tm measured vs the mismatched RNA complement from values of Tm vs the matched RNA complement for each modification.” left out
as §3

Substance | ΔTm/mod vs DNA, Matched, X = A [1] | ΔTm/mod vs RNA, Matched, Y = A [2] | ΔTm/mod vs RNA, Mismatched, Z = G; Mismatched Discrimination [Tm(mismatched) − Tm(matched)] [3] | ΔTm/mod vs RNA, Mismatched, Z = C; Mismatched Discrimination [Tm(mismatched) − Tm(matched)] [4] | ΔTm/mod vs RNA, Mismatched, Z = U; Mismatched Discrimination [Tm(mismatched) − Tm(matched)] [5]
ISIS 438705: unmodified 12mer DNA GCGTTTTTTGCT, phosphodiester linkages, SEQ ID No. 5, purchased from commercial sources (unmodified DNA) | 0 (ref) ° C. | 0 (ref) ° C. | −4.1 °C | −13.0 °C | −13.2 °C
ISIS 438707: 12mer GCGTTT1TTTGCT with one LNA nucleoside, phosphodiester linkages, SEQ ID No. 5 (DNA GCGTTT_{1}TTTGCT; as printed in the source, key not given here) | +1.7 °C | +5.5 °C | −5.4 °C | −15.4 °C | −13.7 °C
ISIS 560180: 12mer GCGTTTaTTTGCT with one α-L-LNA nucleoside, phosphodiester linkages, SEQ ID No. 5 (DNA GCGTTT_{a}TTTGCT; as printed in the source, key not given here) | +1.4 °C | +5.7 °C | −4.7 °C | −14.8 °C | −13.5 °C
A01: 12mer GCGTTTbTTTGCT with one α-L-TriNA (α-L-tricyclic nucleic acid) nucleoside, phosphodiester linkages, SEQ ID No. 5 (DNA GCGTTT_{b}TTTGCT; as printed in the source, key not given here) [Compound A01] | +2.6 °C | +7.1 °C | −5.5 °C | −16.7 °C | −17.0 °C
